Assay results: US11007169B2, “Cis-gnetin H and trans-gnetin H as therapeutic agents” (MIDDLE TENNESSEE STATE UNIVERSITY, priority 2014, dated 2021)

Legend:
[1] = tested on: MCF-7 cells (human breast carcinoma); test: Inhibition of cell proliferation, AlamarBlue fluorescent assay, MCF-7; format: cell-based; details: MCF7, 48 hours, cancer cell line
Procedure: (§1) The cancer cell lines used in this study included human lung carcinoma (A549), human breast carcinoma (BT20 and MCF-7) and human osteosarcoma (U2OS), with the normal cell lines human peripheral lung epithelial cells (HPL1A) and human mammary epithelial cells (HMEC) serving as controls. A549, BT20, MCF-7, U2OS and HMEC cells were purchased from American Type Culture Collection (ATCC, USA), and HPL1A cells were obtained from Nagoya University, Japan. A549 and BT20 were grown in RPMI-1640 (Sigma), MCF-7 was grown in Dulbecco's Modified Eagle Medium (DMEM) (Sigma) supplemented with 0.01 mg/ml human recombinant insulin (Sigma), U2OS and HMEC were grown in McCoy's 5A (ATCC), and HPL1A was grown in DMEM/F-12K (Sigma). The mediums were supplemented with 10% Fetal Bovine Serum (FBS) (Gibco), 1% penicillin and streptomycin and incubated in a humidified atmosphere with 5% CO2 at 37° C.
(§2) The proliferation inhibition potential of cis- and trans-gnetin H was determined by a fluorescence dye staining method. Cells were seeded in a 96-well tissue culture-treated plate (BD Falcon) at a density of 4000 cells/well, and treated with cis- or trans-gnetin H for 48 hours. AlamarBlue dye (Invitrogen) was used to assess the viability of cells according to the manufacturer's instructions; the fluorescent intensity was read on a SpectraMax M2e microplate reader (Molecular Devices Inc.). […]

[2] = tested on: HMEC cells (human mammary epithelial cells); test: Inhibition of cell proliferation, AlamarBlue fluorescent assay, HMEC normal control; format: cell-based; details: for inhibitory effects on normal HMEC cells: 10 uM, up to 48 hours; for IC50: Homo sapiens, HMEC, 48 hours, AlamarBlue, normal cell line
Procedure: as §1
The proliferation inhibition potential of cis- and trans-gnetin H was determined by a fluorescence dye staining method. Cells were seeded in a 96-well tissue culture-treated plate (BD Falcon) at a density of 4000 cells/well, and treated with cis- or trans-gnetin H for 48 hours. AlamarBlue dye (Invitrogen) was used to assess the viability of cells according to the manufacturer's instructions; the fluorescent intensity was read on a SpectraMax M2e microplate reader (Molecular Devices Inc.).
For the determination of IC50 values, cells were treated with a serial dilution (320 μM, 100 μM, 32 μM, 10 μM, 3.2 μM, and 0.32 μM) of cis- or trans-gnetin H for 48 hours. Cell viability was determined with AlamarBlue dye (Invitrogen) and the IC50 values were calculated using non-linear regression analysis.

[3] = tested on: normal cells (HPL1A, HMEC); test: IC50 determination, normal cell lines; format: cell-based; details: Homo sapiens; HPL1A and HMEC, 48 hours; read-out: IC50 values in normal cells (range over cell lines)
Procedure: as §1, §2

[4] = Conversion testing under 12-watt fluorescent lamp, HPLC; format: physicochemical; details: 6-hour treatment; for concentration of the compound after illumination: HPLC
Procedure: For stability testing, cis- and trans-gnetin H were dissolved with methanol to a concentration of 1 mg/ml. The stock solutions were sealed in a glass bottle and kept in the dark at room temperature for 6 months and then the purity of the two compounds was tested using the HPLC method previously described (He et al., J. Liq. Chromatog. Rel. Technol. 2013; 36:1708-1724). For conversion testing, cis- and trans-gnetin H were individually illuminated with a 12-watt fluorescent lamp for 2, 4 and 6 hours, and the compounds were identified using HPLC.

A549 cells = test: Apoptosis assay by flow cytometry, A549; format: cell-based, human; details: 100 μM, 24 hours
Procedure: A549 and BT20 cells were seeded in a 96-well plate (BD Falcon) at a density of 8000 cells/well, and treated with cis- or trans-gnetin H for 24 hours. Apoptosis was assessed using Annexin V/7-AAD double staining as described (Bai et al., Cancer Sci. 2010; 101(2):488-493). Cells were analyzed on a Guava Flow Cytometer (Millipore) using InCyte software and the data was exported to FlowJo software for image display.

[5] = tested on: mitochondrial cytochrome c in A549 cells; test: Analysis of cytochrome c by flow cytometry, A549; format: cell-based, human; details: 100 μM, 24 hours
Procedure: A549 and BT20 cells were seeded in a 96-well plate (BD Falcon) at a density of 8000 cells/well and treated with 100 μM of cis- or trans-gnetin H for 24 hours. The expression of cytochrome c was evaluated using the FlowCellect Cytochrome c Kit (Millipore) according to the manufacturer's instructions. Cells were stained with either Anti-IgG1-FITC Isotype control or Anti-Cytochrome c-FITC, and data was acquired and analyzed using the Guava Flow Cytometer (Millipore).

[6] = tested on: TNF-α in LPS-stimulated THP-1 cells; test: Cytokine response by ELISA, TNF-α; format: cell-based, human; details: for IC50: Homo sapiens, THP-1, pretreated 1 h, LPS 4 h, ELISA; for inhibition of TNF-α: cis 12.5-50 μM, trans 8-30 μM, 20 ng/ml LPS, p<0.05
Procedure: (§3) THP-1 cells were maintained in RPMI 1640 medium supplemented with 10% complement-inactivated FBS and 1% penicillin/streptomycin (complete culture medium) at 37° C. with 5% CO2 supplemented. Cell concentrations were adjusted to desired concentrations for each experiment by centrifugation at 500×g for 5 min and resuspended in complete culture medium with 100 nM of PMA. Cell concentration was adjusted to 5×10^5 cells/ml for all assays and 2.5×10^5 cells/ml were used for NF-κB nuclear translocation assay. Cells were seeded onto 96-, 24-, or 12-well plates and incubated for 48 to 72 h to allow for differentiation. Cells were washed with serum-free RPMI 1640 medium before each experiment to remove the undifferentiated cells.
(§4) Differentiated THP-1 cells were pretreated with various concentrations of cis-gnetin H, trans-gnetin H, or 1 μM of dexamethasone for 1 h and stimulated with 20 ng/ml of LPS for 4 h. Dexamethasone is a synthetic glucocorticoid that suppresses cytokine response and was used as a positive control (Abraham et al., 2006, J. Exp. Med., 203:1883-9; Steer et al., J. Biol. Chem., 2000, 275(24):18432-40). Supernatants were collected for human cytokine ELISAs and the manufacturer's protocol was followed to assess the cytokine response. Cells remaining after the supernatant collection were tested for relative viability by Alamar Blue cytotoxicity assay as described earlier.

[7] = tested on: IL-8 in LPS-stimulated THP-1 cells; test: Cytokine response by ELISA, IL-8; format: cell-based, human; details: cis 12.5-50 μM, trans 8-30 μM, 20 ng/ml LPS, p<0.05
Procedure: as §3, §4

IC50 [1] [µM]	concentration of the compound after illumination [4] [%]	IC50 [6] [µM]	portion converted to its cis-isomer [4]	SMILES	inhibitory effects on normal HMEC cells [2]	IC50 [2] [µM]	IC50 [3] [µM]	apoptosis induction in A549 (A549 cells)	cytochrome c release in A549 [5]	inhibition of TNF-α [6]	inhibition of IL-8 [7]
10	88.9	19		Oc1ccc(/C=C\c2c3c(cc4c2[C@H](c2cc(O)cc(O)c2)[C@@H](c2ccc(O)cc2)O4)O[C@H](c2ccc(O)cc2)[C@H]3c2cc(O)cc(O)c2)cc1 [cis-gnetin H]	no such obvious inhibitory effects	26.7	25.9 to 91	induce apoptosis	release of mitochondrial cytochrome c	significant inhibition	significant inhibition
7.58	6.2	6	about 86%	Oc1ccc(/C=C/c2c3c(cc4c2[C@H](c2cc(O)cc(O)c2)[C@@H](c2ccc(O)cc2)O4)O[C@H](c2ccc(O)cc2)[C@H]3c2cc(O)cc(O)c2)cc1 [trans-gnetin H]	no such obvious inhibitory effects	25.9	25.9 to 91	induce apoptosis	release of mitochondrial cytochrome c	significant inhibition	significant inhibition
